Reference: patent publication US20250042885A1, “SOLID STATE FORMS OF LOTILANER AND PROCESS FOR PREPARATION THEREOF” (TEVA PHARMACEUTICALS INTERNATIONAL GMBH, priority 2021, published 2025)

How the values were obtained:
Format in all cases: physicochemical
[1] = Storage stability at different relative humidities (XRPD); conditions: for at least 7 days; conclusion from Table 1
Method: (§1) Prior to analysis, the samples were gently ground by means of mortar and pestle in order to obtain a fine powder. The ground sample was adjusted into a cavity of the sample holder and the surface of the sample was smoothed by means of a cover glass.
(§2) • Scan range: 2-40 degrees 2-theta; • Scan mode: continuous; • Step size: 0.05 degrees; • Time per step: 0.5 s; • Sample spin: 30 rpm; • Sample holder: PMMA specimen holder ring with silicon low background holder.
Samples of Lotilaner forms were subjected to conditions of different relative humidities at ambient temperature. XRPD analysis was performed on the samples after 7 days.

[2] = Grinding experiments (strong grinding, solvent drop grinding; XRPD)
Method: (§3) X-ray diffraction was performed on X-Ray powder diffractometer Bruker D8 Advance; CuK_radiation (λ=1.5418 Å); Lynx eye detector; laboratory temperature 22-25° C.; PMMA specimen holder ring. Prior to analysis, the samples were gently ground by means of mortar and pestle in order to obtain a fine powder. The ground sample was adjusted into a cavity of the sample holder and the surface of the sample was smoothed by means of a cover glass.
as §2
Samples of Lotilaner forms were subjected to strong grinding, and to solvent drop grinding in water, ethanol or isopropanol. Grinding was carried out on the samples alone, or in the presence of ethanol, water or isopropanol. In these experiments, about 20 mg of the sample is placed in a mortar and ground with a pestle for 2 minutes. The solvent, when used, as added to the crystalline material before grinding, in a volume of 10 microlitres. XRPD analysis performed on each of the samples after the grinding experiment, confirmed no change in the starting material (Table 3): […]

[3] = Storage stability at different temperatures and/or relative humidities (XRPD)
Method: as §1, §2
Samples of Lotilaner forms were subjected to conditions of different temperatures and/or relative humidities. XRPD analysis was performed on the samples after 1, 3 or 6 months.

[4] = Stability to compression (XRPD)
Method: as §1, §2
Samples of Lotilaner forms were subjected to pressures of 2 tons for one minute. XRPD analysis was performed on the samples after 1 minute.

[5] = Thermal stability (heating, XRPD)
Method: as §3, §2
Samples of Lotilaner forms were subjected to heating up to 100° C. for 30 minutes. XRPD analysis of the sample confirmed no change in the starting material (Table 4): […]

Cc1cc(C2=NO[C@@](c3cc(Cl)c(Cl)c(Cl)c3)(C(F)(F)F)C2)sc1C(=O)NCC(=O)NCC(F)(F)F [Form LT1 Lotilaner, 3-Methyl-N-[2-oxo-2-(2,2,2-trifluoroethylamino)ethyl]-5-[(5S)-5-(3,4,5-trichlorophenyl)-5-(trifluoromethyl)-4H-1,2-oxazol-3-yl]thiophene-2-carboxamide]
Stability after exposure to high and low relative humidity [1]: stable | XRPD analysis after strong grinding ([2]; about 20 mg ground in mortar with pestle for 2 minutes, no solvent): No change | Resistance to polymorphic changes on grinding ([2]; conclusion from Table 3): resistant to polymorphic changes | XRPD analysis after solvent-drop grinding (ethanol) ([2]; ground 2 minutes, 10 microlitres ethanol): No change | XRPD analysis after solvent-drop grinding (isopropanol) ([2]; ground 2 minutes, 10 microlitres isopropanol): No change | XRPD analysis after solvent-drop grinding (water) ([2]; ground 2 minutes, 10 microlitres water): No change | XRPD analysis after storage, 2-8° C. ([3]; 6 months (6 m)): No change | XRPD analysis after storage, 25° C., 60% RH ([3]; 6 months (6 m)): No change | XRPD analysis after storage, 40° C., 75% RH ([3]; 6 months (6 m)): No change | Storage stability ([3]; conclusion from Table 2): good storage stability | XRPD analysis results, pressure (2 tons) ([4]; 2 tons for one minute): No change | Stability under high pressure conditions ([4]; conclusion from Table 5): stable | XRPD analysis after heating 100° C., 30 minutes [5]: No change

Cc1cc(C2=NO[C@@](c3cc(Cl)c(Cl)c(Cl)c3)(C(F)(F)F)C2)sc1C(=O)NCC(=O)NCC(F)(F)F [Form LT4 Lotilaner, 3-Methyl-N-[2-oxo-2-(2,2,2-trifluoroethylamino)ethyl]-5-[(5S)-5-(3,4,5-trichlorophenyl)-5-(trifluoromethyl)-4H-1,2-oxazol-3-yl]thiophene-2-carboxamide]
XRPD analysis after storage, 2-8° C. ([3]; 3 months (3 m)): No change | XRPD analysis after storage, 25° C., 60% RH ([3]; 3 months (3 m)): No change | XRPD analysis after storage, 40° C., 75% RH ([3]; 3 months (3 m)): No change

Cc1cc(C2=NO[C@@](c3cc(Cl)c(Cl)c(Cl)c3)(C(F)(F)F)C2)sc1C(=O)NCC(=O)NCC(F)(F)F [Form LT5 Lotilaner, 3-Methyl-N-[2-oxo-2-(2,2,2-trifluoroethylamino)ethyl]-5-[(5S)-5-(3,4,5-trichlorophenyl)-5-(trifluoromethyl)-4H-1,2-oxazol-3-yl]thiophene-2-carboxamide]
XRPD analysis after storage, 2-8° C. ([3]; 1 month (1 m)): No change | XRPD analysis after storage, 25° C., 60% RH ([3]; 1 month (1 m)): No change | XRPD analysis after storage, 40° C., 75% RH ([3]; 1 month (1 m)): No change
